Measured values reported in patent publication US11932845B2, “Microorganisms and methods for production of 4-hydroxybutyrate, 1,4-butanediol and related compounds” (priority 2012, dated 2024).
Read-outs that look alike come from different tables or passages of the source.

Experiments:
[1] = system: alcohol dehydrogenase from Brevibacterium sp KU; details: oxidation of alcohols, cited from earlier work; for Relative Activity: 2-phenylethanol taken as 100%
homoserine kinase = homoserine kinase (Escherichia coli, UniProt P00547); details: cited from earlier work
[2] = system: L(+)-lactate dehydrogenase from A. eutrophus; details: compared with that on pyruvate; cited from earlier work
[3] = system: D(−)-lactate dehydrogenase from L. leichmanii; details: compared with that on pyruvate; cited from earlier work
[4] = biological target: T1, L(+)-lactate dehydrogenase from rabbit muscle (Oryctolagus cuniculus, UniProt P13491); details: compared with that on pyruvate; cited from earlier work
T1 construct: host or cells: rabbit muscle

aminotransferase = details: activity considered 100% on tyrosine; cited from earlier work
cytochrome-bd oxidases = details: cited from earlier work; for Km: pH 7
[5] = system: 4-HB to BDO conversion pathway; assay: Production of BDO from 10 mM 4-HB in recombinant E. coli strains; details: for BDO: 10 mM 4-HB, 24 hours, cat2 (0034) on pZA33
Method: For the BDO production experiments, cat2 from Porphyromonas gingivalis W83 (gene 0034) was included on pZA33 for the conversion of 4-HB to 4-HB-CoA, while the candidate dehydrogenase genes were expressed on pZE13. The host strain was MG1655 lacI^Q. Along with the alcohol and aldehyde dehydrogenase candidates, we also tested the ability of CoA-dependent succinic semialdehyde dehydrogenases (sucD) to function in this step, due to the similarity of the substrates. Cells were grown to an OD of about 0.5 in LB medium supplemented with 10 mM 4-HB, induced with 1 mM IPTG, and culture broth samples taken after 24 hours and analyzed for BDO as described below.
Finally, the construct was tested for participation in the conversion of 4-HB to BDO. Host strains were transformed with the pZA33-0020-0021 construct described and pZE13-0002, and compared to use of cat2 in BDO production using the aerobic procedure used above in FIG. 5.

Alcohol dehydrogenase = Alcohol dehydrogenase (ADH) assay in the reductive direction, cell extracts; details: cell extracts from MG1655 lacI^Q containing pZA33
Method: Alcohol (ADH) and aldehyde (ALD) dehydrogenase was assayed in the reductive direction using a procedure adapted from several literature sources (Durre et al., FEMS Microbiol. Rev. 17:251-262 (1995); Palosaari and Rogers, J. Bacteriol. 170:2971-2976 (1988) and Welch et al., Arch. Biochem. Biophys. 273:309-318 (1989). The oxidation of NADH is followed by reading absorbance at 340 nm every four seconds for a total of 240 seconds at room temperature. The reductive assays were performed in 100 mM MOPS (adjusted to pH 7.5 with KOH), 0.4 mM NADH, and from 1 to 50 μl of cell extract. The reaction is started by adding the following reagents: 100 μl of 100 mM acetaldehyde or butyraldehyde for ADH, or 100 μl of 1 mM acetyl-CoA or butyryl-CoA for ALD. The Spectrophotometer is quickly blanked and then the kinetic read is started. The resulting slope of the reduction in absorbance at 340 nm per minute, along with the molar extinction coefficient of NAD(P)H at 340 nM (6000) and the protein concentration of the extract, can be used to determine the specific activity.
Gene candidates for the 4-HB to BDO conversion pathway were next tested for activity when expressed in the E. coli host MG1655 lacI^Q. Recombinant strains containing each gene candidate expressed on pZA33 were grown in the presence of 0.25 mM IPTG for four hours at 37° C. to fully induce expression of the enzyme. Four hours after induction, cells were harvested and assayed for ADH and ALD activity as described above.

Sequence of homoserine kinase (P00547 whole entry): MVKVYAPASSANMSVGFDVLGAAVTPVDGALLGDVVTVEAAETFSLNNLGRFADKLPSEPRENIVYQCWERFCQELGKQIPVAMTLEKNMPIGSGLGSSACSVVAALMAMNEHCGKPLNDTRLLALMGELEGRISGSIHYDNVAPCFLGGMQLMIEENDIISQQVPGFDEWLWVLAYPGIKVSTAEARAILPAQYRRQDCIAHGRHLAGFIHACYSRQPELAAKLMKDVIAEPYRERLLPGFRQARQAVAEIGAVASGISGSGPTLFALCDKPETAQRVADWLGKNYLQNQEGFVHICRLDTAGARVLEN

Molecule: C[C@H](CO)c1ccccc1 [(S)-2-Phenylpropanol]
- Relative Activity [1]: 156 0%
- Km [1]: 157 µM

Molecule: CCCCO [Sample 1-Butanol, 1-Butanol]
- Relative Activity [1]: 111 0%

Molecule: CCCCCCCCCCCCO [Sample 1-Dodecanol, 1-Dodecanol]
- Relative Activity [1]: 68 0%

Molecule: N[C@@H](CCCO)C(=O)O [L-2-amino-5-hydroxyvalerate]
- % kcat (homoserine kinase): 9.9%
- Km (homoserine kinase): 1100 ± 500 µM

Molecule: CCCCCCCCO [Sample 1-Octanol, 1-Octanol]
- Relative Activity [1]: 101 0%

Molecule: CCCOC(=O)[C@@H](N)CCO [L-homoserine n-propyl ester]
- % kcat (homoserine kinase): 76%

Molecule: N[C@H](CCO)C(=O)O [D-homoserine]
- % kcat (homoserine kinase): 32%

Molecule: CC(C)CC(=O)C(=O)O [4-Methyl-2-oxopentanoate]
- Activity (%) of L(+)-lactate dehydrogenase from A. eutrophus [2]: 39.0%
- Activity (%) of D(−)-lactate dehydrogenase from L. leichmanii [3]: 1.1%
- Activity (%) of L(+)-lactate dehydrogenase from rabbit muscle [4]: 1.4%

Molecule: CC(C)OC(=O)[C@@H](N)CCO [L-homoserine isopropyl ester]
- % kcat (homoserine kinase): 74%

Molecule: CCC(=O)C(=O)O [2-Oxobutyrate]
- Activity (%) of L(+)-lactate dehydrogenase from A. eutrophus [2]: 107.0%
- Activity (%) of D(−)-lactate dehydrogenase from L. leichmanii [3]: 1.1%
- Activity (%) of L(+)-lactate dehydrogenase from rabbit muscle [4]: 18.6%

Molecule: CC(C)COC(=O)[C@@H](N)CCO [L-homoserine isobutyl ester]
- % kcat (homoserine kinase): 84%

Molecule: N[C@H](CO)CCO [L-2-amino-1,4-butanediol]
- % kcat (homoserine kinase): 7.9%

Molecule: CCC(C)C(=O)C(=O)O (stereo not drawn) [3-Methyl-2-oxovalerate]
- Activity (%) of L(+)-lactate dehydrogenase from A. eutrophus [2]: 5.3%
- Activity (%) of D(−)-lactate dehydrogenase from L. leichmanii [3]: 0.0%
- Activity (%) of L(+)-lactate dehydrogenase from rabbit muscle [4]: 0.0%

Molecule: O=CC(=O)O [Glyoxylate]
- Activity (%) of L(+)-lactate dehydrogenase from A. eutrophus [2]: 8.7%
- Activity (%) of D(−)-lactate dehydrogenase from L. leichmanii [3]: 5.0%

Molecule: CC(O)c1ccccc1 (stereo not drawn) [1-Phenylethanol]
- Relative Activity [1]: 46 0%

Molecule: N[C@@H](Cc1c[nH]c2ccccc12)C(=O)O [tryptophan]
- activity (aminotransferase): 85%

Molecule: CCOC(=O)[C@@H](N)CCO [L-homoserine ethyl ester]
- % kcat (homoserine kinase): 74%

Molecule: CCCCOC(=O)[C@@H](N)CCO [L-homserine n-butyl ester]
- % kcat (homoserine kinase): 160%
- Km (homoserine kinase): 5800 ± 800 µM

Molecule: CSCC[C@H](N)C(=O)O [methionine]
- activity (aminotransferase): 25%

Molecule: CCO [Ethanol]
- Relative Activity [1]: 76 0%

Molecule: CCCC(=O)C(=O)O [2-Oxovalerate]
- Activity (%) of L(+)-lactate dehydrogenase from A. eutrophus [2]: 125.0%
- Activity (%) of D(−)-lactate dehydrogenase from L. leichmanii [3]: 0.0%
- Activity (%) of L(+)-lactate dehydrogenase from rabbit muscle [4]: 0.7%

Molecule: Cytochrome bd-II
- In vivo sp act (cytochrome-bd oxidases): 70 ± 12 mol O2/mol cytochrome bd/s
- Vmax (cytochrome-bd oxidases): 818 ± 75 mol O/mol cytochrome bd/s
- Km (cytochrome-bd oxidases; read-out: Km (O2) at pH 7): 2 ± 0.3 µM
- Km (cytochrome-bd oxidases; read-out: Km (UQ-H2) at pH 7): 250 ± 45 µM

Molecule: N[C@@H](Cc1ccc(O)cc1)C(=O)O [tyrosine]
- activity (aminotransferase): 100%

Molecule: N[C@@H](CCO)C(=O)O [L-homoserine]
- % kcat (homoserine kinase): 100%

Molecule: N[C@@H](Cc1ccccc1)C(=O)O [phenylalanine]
- activity (aminotransferase): 90%

Molecule: COC(=O)[C@@H](N)CCO [L-homoserine methyl ester]
- % kcat (homoserine kinase): 80%

Molecule: OCCCc1ccccc1 [3-Phenylpropanol]
- Relative Activity [1]: 135 0%
- Km [1]: 33 µM

Molecule: C[C@@H](CO)c1ccccc1 [(R)-2-Phenylpropanol]
- Relative Activity [1]: 63 0%
- Km [1]: 20 µM

Molecule: CC(C)C[C@H](N)C(=O)O [leucine]
- activity (aminotransferase): 25%

Molecule: N[C@@H](CC=O)C(=O)O [L-aspartate β-semialdehyde]
- % kcat (homoserine kinase): 8.2%
- Km (homoserine kinase): 280 ± 20 µM

Molecule: CC(C)O [Sample 2-Propanol, 2-Propanol]
- Relative Activity [1]: 54 0%

Molecule: O=C(O)C(=O)CF [3-Fluoropyruvate]
- Activity (%) of L(+)-lactate dehydrogenase from A. eutrophus [2]: 33.6%
- Activity (%) of D(−)-lactate dehydrogenase from L. leichmanii [3]: 40.0%
- Activity (%) of L(+)-lactate dehydrogenase from rabbit muscle [4]: 74.3%

Molecule: CC(C)C(=O)C(=O)O [3-Methyl-2-oxobutyrate]
- Activity (%) of L(+)-lactate dehydrogenase from A. eutrophus [2]: 28.5%
- Activity (%) of D(−)-lactate dehydrogenase from L. leichmanii [3]: 0.0%
- Activity (%) of L(+)-lactate dehydrogenase from rabbit muscle [4]: 0.0%

B1: 0008n: Gene ID 0008 (native), sucD, Clostridium kluyveri DSM 555, Succinic semialdehyde dehydrogenase (CoA-dependent) (protein, UniProt P38947 1-453, looked up)
Succinate-semialdehyde …: MSNEVSIKELIEKAKVAQKKLEAYSQEQVDVLVKALGKVVYDNAEMFAKEAVEETEMGVYEDKVAKCHLKSGAIWNHIKDKKTVGIIKEEPERALVYVAKPKGVVAATTPITNPVVTPMCNAMAAIKGRNTIIVAPHPKAKKVSAHTVELMNAELKKLGAPENIIQIVEAPSREAAKELMESADVVIATGGAGRVKAAYSSGRPAYGVGPGNSQVIVDKGYDYNKAAQDIITGRKYDNGIICSSEQSVIAPAEDYDKVIAAFVENGAFYVEDEETVEKFRSTLFKDGKINSKIIGKSVQIIADLAGVKVPEGTKVIVLKGKGAGEKDVLCKEKMCPVLVALKYDTFEEAVEIAMANYMYEGAGHTAGIHSDNDENIRYAGTVLPISRLVVNQPATTAGGSFNNGFNPTTTLGCGSWGRNSISENLTYEHLINVSRIGYFNKEAKVPSYEEIWG
- BDO/OD ([5]; Aerobic): 47.6
- BDO ([5]; Aerobic): 255.8 µM
- BDO/OD ([5]; Anaerobic): 98.1
- BDO ([5]; Anaerobic): 60.8 µM
- BDO/OD ([5]; Microaerobic): 41.9
- BDO ([5]; Microaerobic): 127.9 µM

B2: 0013: Gene ID 0013, bdhB, Clostridium acetobutylicum ATCC 824, Butanol dehydrogenase II (protein, UniProt Q04945 1-390, looked up)
NADH-dependent butanol …: MVDFEYSIPTRIFFGKDKINVLGRELKKYGSKVLIVYGGGSIKRNGIYDKAVSILEKNSIKFYELAGVEPNPRVTTVEKGVKICRENGVEVVLAIGGGSAIDCAKVIAAACEYDGNPWDIVLDGSKIKRVLPIASILTIAATGSEMDTWAVINNMDTNEKLIAAHPDMAPKFSILDPTYTYTVPTNQTAAGTADIMSHIFEVYFSNTKTAYLQDRMAEALLRTCIKYGGIALEKPDDYEARANLMWASSLAINGLLTYGKDTNWSVHLMEHELSAYYDITHGVGLAILTPNWMEYILNNDTVYKFVEYGVNVWGIDKEKNHYDIAHQAIQKTRDYFVNVLGLPSRLRDVGIEEEKLDIMAKESVKLTGGTIGNLRPVNASEVLQIFKKSV
- Alcohol dehydrogenase, Substrate Acetaldehyde (Alcohol dehydrogenase): 0.0142 μmol min^−1 mg cell protein^−1
- Alcohol dehydrogenase, Substrate Butyraldehyde (Alcohol dehydrogenase): 0.0130 μmol min^−1 mg cell protein^−1
